From patent EP0726263A2, “Herbicidal (1,3,4)oxadiazoles and thiadiazoles” (American Cyanamid Company, priority 1995, dated 1996)

Tests used:
Assay type in all cases: in vivo
[1] = system: Stellaria media; test: Herbicidal activity, postemergence test; settings: post; sprayed onto seedling plants, 800 g of active material per hectare; evaluated 2 weeks after treatment
In short: (§1)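 First, test compound in acetone containing 0.4% Triton X-155 is diluted with water. Next, it is sprayed at 800 g/ha (900 L/ha) onto freshly seeded loam (pre) or onto seedlings (post). Finally, plants are scored 0-9 visually after 3 or 2 weeks, respectively.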

[2] = system: Hordeum vulgare; test: Herbicidal activity, postemergence test; settings: post; sprayed onto seedling plants, 800 g of active material per hectare; evaluated 2 weeks after treatment
In short: as §1

[3] = system: Echinochloa crus-galli; test: Herbicidal activity, postemergence test; settings: post; sprayed onto seedling plants, 800 g of active material per hectare; evaluated 2 weeks after treatment
In short: as §1

[4] = system: Viola arvensis; test: Herbicidal activity, postemergence test; settings: post; sprayed onto seedling plants, 800 g of active material per hectare; evaluated 2 weeks after treatment
In short: as §1

[5] = system: Amaranthus retroflexus; test: Herbicidal activity, postemergence test; settings: post; sprayed onto seedling plants, 800 g of active material per hectare; evaluated 2 weeks after treatment
In short: as §1

[6] = system: Abutilon theophrasti; test: Herbicidal activity, postemergence test; settings: post; sprayed onto seedling plants, 800 g of active material per hectare; evaluated 2 weeks after treatment
In short: as §1

[7] = system: Lamium purpureum; test: Herbicidal activity, postemergence test; settings: post; sprayed onto seedling plants, 800 g of active material per hectare; evaluated 2 weeks after treatment
In short: as §1

[8] = system: Ambrosia artemisifolia; test: Herbicidal activity, postemergence test; settings: post; sprayed onto seedling plants, 800 g of active material per hectare; evaluated 2 weeks after treatment
In short: as §1

[9] = system: Triticum aestivum; test: Herbicidal activity, postemergence test; settings: post; sprayed onto seedling plants, 800 g of active material per hectare; evaluated 2 weeks after treatment
In short: as §1

[10] = system: Setaria viridis; test: Herbicidal activity, postemergence test; settings: post; sprayed onto seedling plants, 800 g of active material per hectare; evaluated 2 weeks after treatment
In short: as §1

[11] = system: Galium aparine; test: Herbicidal activity, postemergence test; settings: post; sprayed onto seedling plants, 800 g of active material per hectare; evaluated 2 weeks after treatment
In short: as §1

[12] = system: Gossypium hirsutum; test: Herbicidal activity, postemergence test; settings: post; sprayed onto seedling plants, 800 g of active material per hectare; evaluated 2 weeks after treatment
In short: as §1

[13] = system: Zea mays; test: Herbicidal activity, postemergence test; settings: post; sprayed onto seedling plants, 800 g of active material per hectare; evaluated 2 weeks after treatment
In short: as §1

[14] = system: Glycine max; test: Herbicidal activity, postemergence test; settings: post; sprayed onto seedling plants, 800 g of active material per hectare; evaluated 2 weeks after treatment
In short: as §1

[15] = system: Alopecurus myosuroides; test: Herbicidal activity, postemergence test; settings: post; sprayed onto seedling plants, 800 g of active material per hectare; evaluated 2 weeks after treatment
In short: as §1

[16] = system: Veronica persica; test: Herbicidal activity, postemergence test; settings: post; sprayed onto seedling plants, 800 g of active material per hectare; evaluated 2 weeks after treatment
In short: as §1

[17] = system: Helianthus annuus; test: Herbicidal activity, postemergence test; settings: post; sprayed onto seedling plants, 800 g of active material per hectare; evaluated 2 weeks after treatment
In short: as §1

[18] = system: Ipomoea hederacea; test: Herbicidal activity, postemergence test; settings: post; sprayed onto seedling plants, 800 g of active material per hectare; evaluated 2 weeks after treatment
In short: as §1

[19] = system: Stellaria media; test: Herbicidal activity, preemergence test; settings: pre; sprayed onto soil, 800 g of active material per hectare; evaluated 3 weeks after treatment
In short: as §1

[20] = system: Hordeum vulgare; test: Herbicidal activity, preemergence test; settings: pre; sprayed onto soil, 800 g of active material per hectare; evaluated 3 weeks after treatment
In short: as §1

[21] = system: Echinochloa crus-galli; test: Herbicidal activity, preemergence test; settings: pre; sprayed onto soil, 800 g of active material per hectare; evaluated 3 weeks after treatment
In short: as §1

[22] = system: Viola arvensis; test: Herbicidal activity, preemergence test; settings: pre; sprayed onto soil, 800 g of active material per hectare; evaluated 3 weeks after treatment
In short: as §1

[23] = system: Amaranthus retroflexus; test: Herbicidal activity, preemergence test; settings: pre; sprayed onto soil, 800 g of active material per hectare; evaluated 3 weeks after treatment
In short: as §1

[24] = system: Abutilon theophrasti; test: Herbicidal activity, preemergence test; settings: pre; sprayed onto soil, 800 g of active material per hectare; evaluated 3 weeks after treatment
In short: as §1

[25] = system: Lamium purpureum; test: Herbicidal activity, preemergence test; settings: pre; sprayed onto soil, 800 g of active material per hectare; evaluated 3 weeks after treatment
In short: as §1

[26] = system: Ambrosia artemisifolia; test: Herbicidal activity, preemergence test; settings: pre; sprayed onto soil, 800 g of active material per hectare; evaluated 3 weeks after treatment
In short: as §1

[27] = system: Triticum aestivum; test: Herbicidal activity, preemergence test; settings: pre; sprayed onto soil, 800 g of active material per hectare; evaluated 3 weeks after treatment
In short: as §1

[28] = system: Setaria viridis; test: Herbicidal activity, preemergence test; settings: pre; sprayed onto soil, 800 g of active material per hectare; evaluated 3 weeks after treatment
In short: as §1

[29] = system: Galium aparine; test: Herbicidal activity, preemergence test; settings: pre; sprayed onto soil, 800 g of active material per hectare; evaluated 3 weeks after treatment
In short: as §1

[30] = system: Gossypium hirsutum; test: Herbicidal activity, preemergence test; settings: pre; sprayed onto soil, 800 g of active material per hectare; evaluated 3 weeks after treatment
In short: as §1

[31] = system: Zea mays; test: Herbicidal activity, preemergence test; settings: pre; sprayed onto soil, 800 g of active material per hectare; evaluated 3 weeks after treatment
In short: as §1

[32] = system: Glycine max; test: Herbicidal activity, preemergence test; settings: pre; sprayed onto soil, 800 g of active material per hectare; evaluated 3 weeks after treatment
In short: as §1

[33] = system: Alopecurus myosuroides; test: Herbicidal activity, preemergence test; settings: pre; sprayed onto soil, 800 g of active material per hectare; evaluated 3 weeks after treatment
In short: as §1

[34] = system: Veronica persica; test: Herbicidal activity, preemergence test; settings: pre; sprayed onto soil, 800 g of active material per hectare; evaluated 3 weeks after treatment
In short: as §1

[35] = system: Helianthus annuus; test: Herbicidal activity, preemergence test; settings: pre; sprayed onto soil, 800 g of active material per hectare; evaluated 3 weeks after treatment
In short: as §1

[36] = system: Ipomoea hederacea; test: Herbicidal activity, preemergence test; settings: pre; sprayed onto soil, 800 g of active material per hectare; evaluated 3 weeks after treatment
In short: as §1

[37] = system: Matricaria inodora; test: Herbicidal activity, postemergence test; settings: post; sprayed onto seedling plants, 800 g of active material per hectare; evaluated 2 weeks after treatment
In short: as §1

[38] = system: Papaver rhoeas; test: Herbicidal activity, postemergence test; settings: post; sprayed onto seedling plants, 800 g of active material per hectare; evaluated 2 weeks after treatment
In short: as §1

[39] = system: Matricaria inodora; test: Herbicidal activity, preemergence test; settings: pre; sprayed onto soil, 800 g of active material per hectare; evaluated 3 weeks after treatment
In short: as §1

[40] = system: Papaver rhoeas; test: Herbicidal activity, preemergence test; settings: pre; sprayed onto soil, 800 g of active material per hectare; evaluated 3 weeks after treatment
In short: as §1

C[C@H](NC(=O)c1nnc(C(C)(C)C)o1)c1ccccc1 [Example 2, (S)-5-tert-Butyl-[1,3,4]oxadiazole-2-carboxylic acid (1-phenylethyl)amide]
7 (good herbicidal effect): VERPE control rating (0-9) [16]
6 (herbicidal effect): STEME control rating (0-9) [1] | AMARE control rating (0-9) [5] | ABUTH control rating (0-9) [6]
3 (moderate effect): ECHCG control rating (0-9) [3] | TRZAW control rating (0-9) [9] | GLXMA control rating (0-9) [14] | AMBEL control rating (0-9) [26]
4 (injury): SETVI control rating (0-9) [10] | GALAP control rating (0-9) [11] | GOSHI control rating (0-9) [12] | HELAN control rating (0-9) [17] | ABUTH control rating (0-9) [24]
0 (no effect): ALOMY control rating (0-9) [15] | HORVW control rating (0-9) [20] | ECHCG control rating (0-9) [21] | LAMPU control rating (0-9) [25] | TRZAW control rating (0-9) [27] | GALAP control rating (0-9) [29] | GOSHI control rating (0-9) [30] | ZEAMX control rating (0-9) [31] | GLXMA control rating (0-9) [32] | HELAN control rating (0-9) [35] | IPOHE control rating (0-9) [36]
5 (definite injury): VIOAR control rating (0-9) [4] | AMBEL control rating (0-9) [8] | IPOHE control rating (0-9) [18] | STEME control rating (0-9) [19] | VIOAR control rating (0-9) [22] | AMARE control rating (0-9) [23] | SETVI control rating (0-9) [28]
8 (approaching complete kill): VERPE control rating (0-9) [34]
1 (trace effect): HORVW control rating (0-9) [2] | ZEAMX control rating (0-9) [13]
2 (slight effect): LAMPU control rating (0-9) [7] | ALOMY control rating (0-9) [33]

C[C@H](NC(=O)c1nnc(N(C)C)o1)c1ccccc1 [Example 6]
1 (trace effect): LAMPU control rating (0-9) [7] | TRZAW control rating (0-9) [9]
0 (no effect): VIOAR control rating (0-9) [4] | SETVI control rating (0-9) [10] | MATIN control rating (0-9) [37] | ZEAMX control rating (0-9) [13] | GLXMA control rating (0-9) [14] | PAPRH control rating (0-9) [38] | VERPE control rating (0-9) [16] | HORVW control rating (0-9) [20] | ABUTH control rating (0-9) [24] | LAMPU control rating (0-9) [25] | TRZAW control rating (0-9) [27] | SETVI control rating (0-9) [28] | MATIN control rating (0-9) [39] | GALAP control rating (0-9) [29] | GOSHI control rating (0-9) [30] | ZEAMX control rating (0-9) [31] | GLXMA control rating (0-9) [32] | PAPRH control rating (0-9) [40] | ALOMY control rating (0-9) [33] | VERPE control rating (0-9) [34] | HELAN control rating (0-9) [35] | IPOHE control rating (0-9) [36]
2 (slight effect): HORVW control rating (0-9) [2] | ABUTH control rating (0-9) [6] | GALAP control rating (0-9) [11] | GOSHI control rating (0-9) [12] | ALOMY control rating (0-9) [15] | HELAN control rating (0-9) [17] | IPOHE control rating (0-9) [18] | VIOAR control rating (0-9) [22]
